Experiments:
[1] = test system: mice (immobility time, tail suspension); experiment: Tail suspension test for antidepressant activity (immobility time); type: in vivo, mouse (female NMRI); conditions: Mus musculus, 0.5 h, oral, 30 min before test, 6 min observation, graphical interpolation from at least 3 doses, read-out: ED50 (dose reducing the immobility to 100 sec)
Procedure: A decrease in the immobility time by mice suspended in their tail is seen after systemic administration of central stimulants and by antidepressants (Steru, L., Chermat, R., Thierry, B. & Simon, P. (1985) The tail suspension test: A new method for screening antidepressants in mice. Psychopharmacology 85:367-370.).
Female NMRI mice (20-25 g) habituated to the room (12 hours light/dark) for at least 16 hours and housed 25 per cage are used. The mice are suspended by the tail with adhesive tape to a rod 30 cm above the lab. bench 30 min after an oral administation of vehicle or drug. For the next 6 min the accumulated duration of immobility defined as no movements by the body or extremities (however head movements are not defined as movements) are noted. Six mice per dose are used.
Saline or vehicle treated mice have immobility time scores between 160-180 sec in average. An ED50 -value is calculated by graphical interpolation from at least 3 doses as the dose reducing the immobility to 100 sec.

[2] = biological target: T1, 3H-dopamine (DA) uptake in striatal synaptosomes (Rattus norvegicus, UniProt P23977); experiment: In vitro inhibition of 3H-dopamine (3H-DA) uptake in striatal synaptosomes; type: biochemical, rat (male Wistar)
T1 construct: Corpi striati from male Wistar rats (150-200 g); from tissue; host or cells: corpus striatum of male Wistar rats, crude synaptosomal P2 fraction
T1 sequence (P23977 whole entry): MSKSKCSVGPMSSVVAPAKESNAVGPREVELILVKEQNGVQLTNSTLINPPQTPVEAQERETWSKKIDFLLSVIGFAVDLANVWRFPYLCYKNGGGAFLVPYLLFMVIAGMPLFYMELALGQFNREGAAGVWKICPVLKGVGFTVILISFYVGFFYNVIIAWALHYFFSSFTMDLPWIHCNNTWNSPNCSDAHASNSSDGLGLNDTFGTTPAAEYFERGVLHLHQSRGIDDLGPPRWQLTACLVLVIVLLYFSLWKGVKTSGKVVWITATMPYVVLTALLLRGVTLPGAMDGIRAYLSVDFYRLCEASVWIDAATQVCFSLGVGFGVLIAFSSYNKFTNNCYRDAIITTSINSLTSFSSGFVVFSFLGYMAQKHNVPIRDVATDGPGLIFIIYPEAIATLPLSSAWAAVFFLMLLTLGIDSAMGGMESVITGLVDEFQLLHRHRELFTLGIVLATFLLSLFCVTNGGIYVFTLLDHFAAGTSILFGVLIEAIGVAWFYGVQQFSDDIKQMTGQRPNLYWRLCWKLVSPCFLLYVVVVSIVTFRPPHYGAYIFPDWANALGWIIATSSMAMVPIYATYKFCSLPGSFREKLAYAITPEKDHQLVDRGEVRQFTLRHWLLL
Description: (§1) Specific neurotransmitter transporters/uptake sites on nerve terminals presumably function to terminate neuronal signaling by removing the neurotransmitters dopamine, noradrenaline and serotonin, respectively, from the synaptic cleft. The activity of the transporter integral proteins can be measured in vitro by synaptosomal uptake of ^3 H-dopamine, ^3 H-noradrenaline and ^3 H-serotonine, respectively.
In vitro Inhibition of ^3 H-dopamine (^3 H-DA) Uptake in Striatal Synaptosomes
(§2) Tissue preparations: Preparations are performed at 0-4° C. unless otherwise indicated. Corpi striati from male Wistar rats (150-200 g) are homogenized for 5-10 sec in 100 volumes of ice-cold 0.32M sucrose containing 1 mM pargyline using an Ultra-Turrax homogenizer. Monoamine oxidase activity will be inhibited in the presence of pargyline. The homogenate is centrifuged at 1000×g for 10 min. […]
(§3) Assay: Aliquots of 4.0 ml tissue suspension are added to 100 μl of test solution and 100 μl of ^3 H-DA (1 nM, final concentration), mixed and incubated for 25 min at 37° C. Non-specific uptake is determined using benztropine (10 μM, final concentration). […] The amount of radioactivity on the filters is determined by conventional liquid scintillation counting. Specific uptake is calculated as the difference between total uptake and non-specific uptake. […]

[3] = biological target: T2, 3H-noradrenaline (NA) uptake in hippocampal synaptosomes (Rattus norvegicus, UniProt Q63380); experiment: In vitro inhibition of 3H-noradrenaline (3H-NA) uptake in hippocampal synaptosomes; type: biochemical, rat (male Wistar)
T2 construct: Hippocampi from male Wistar rats (150-200 g); from tissue; host or cells: hippocampus of male Wistar rats, crude synaptosomal P2 fraction
T2 sequence (Q63380 1-617): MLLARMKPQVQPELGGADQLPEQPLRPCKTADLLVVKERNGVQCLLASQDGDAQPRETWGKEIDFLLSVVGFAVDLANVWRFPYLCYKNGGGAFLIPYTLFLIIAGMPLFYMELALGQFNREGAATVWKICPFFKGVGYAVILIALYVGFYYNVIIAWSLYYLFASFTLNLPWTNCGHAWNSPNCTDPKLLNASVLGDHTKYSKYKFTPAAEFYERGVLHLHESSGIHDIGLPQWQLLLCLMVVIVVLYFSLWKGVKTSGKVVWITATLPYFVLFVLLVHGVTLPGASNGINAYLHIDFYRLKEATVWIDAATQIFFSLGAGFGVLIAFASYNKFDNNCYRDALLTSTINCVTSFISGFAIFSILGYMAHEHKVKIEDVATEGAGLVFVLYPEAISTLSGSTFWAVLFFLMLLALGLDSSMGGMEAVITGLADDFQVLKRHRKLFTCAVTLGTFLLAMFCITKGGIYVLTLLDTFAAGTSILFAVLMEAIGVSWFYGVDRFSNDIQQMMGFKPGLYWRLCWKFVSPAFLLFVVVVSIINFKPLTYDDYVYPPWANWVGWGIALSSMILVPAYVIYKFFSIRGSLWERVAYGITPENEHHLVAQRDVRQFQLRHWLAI
Description: as §1
In vitro Inhibition of ^3 H-noradrenaline (^3 H-NA) Uptake in Hippocampal Synaptosomes
as §2, with “preparation:” for “preparations:”, “Hippocampi” for “Corpi striati”
as §3, with “H-NA” for “H-DA”, “90” for “25”, “desipramine (1” for “benztropine (10”

[4] = biological target: T3, 3H-5-hydroxytryptamine (5-HT, serotonin) uptake in cortical synaptosomes (Rattus norvegicus, UniProt P31652); experiment: In vitro inhibition of 3H-5-hydroxytryptamine (3H-5-HT, serotonin) uptake in cortical synaptosomes; type: biochemical, rat (male Wistar)
T3 construct: Cerebral cortices from male Wistar rats (150-200 g); from tissue; host or cells: cerebral cortex of male Wistar rats, crude synaptosomal P2 fraction
T3 sequence (P31652 whole entry): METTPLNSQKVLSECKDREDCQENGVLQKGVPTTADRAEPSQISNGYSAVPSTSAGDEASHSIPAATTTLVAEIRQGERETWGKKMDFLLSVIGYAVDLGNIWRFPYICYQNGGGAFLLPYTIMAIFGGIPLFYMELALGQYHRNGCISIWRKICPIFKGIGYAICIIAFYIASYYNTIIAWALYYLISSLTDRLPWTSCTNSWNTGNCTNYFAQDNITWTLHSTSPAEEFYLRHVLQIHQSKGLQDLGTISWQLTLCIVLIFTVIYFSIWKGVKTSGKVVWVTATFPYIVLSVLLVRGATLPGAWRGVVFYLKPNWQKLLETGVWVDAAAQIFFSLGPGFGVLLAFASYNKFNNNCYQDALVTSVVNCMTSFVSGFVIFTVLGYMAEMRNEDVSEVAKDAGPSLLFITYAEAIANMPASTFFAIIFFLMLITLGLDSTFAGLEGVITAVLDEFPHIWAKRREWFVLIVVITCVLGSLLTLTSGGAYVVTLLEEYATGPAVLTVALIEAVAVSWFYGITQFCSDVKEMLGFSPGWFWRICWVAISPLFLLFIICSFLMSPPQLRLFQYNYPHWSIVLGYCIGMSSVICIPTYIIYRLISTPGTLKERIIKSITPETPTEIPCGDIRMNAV
Description: as §1
In vitro Inhibition of ^3 H-5-hydroxytryptamine (^3 H-5-HT, serotonin) Uptake in Cortical Synaptosomes
as §2, with “preparation:” for “preparations:”, “Cerebral cortices” for “Corpi striati”
as §3, with “H-5-HT” for “H-DA”, “30” for “25”, “citalopram (1” for “benztropine (10”

CN1C2C=C(c3ccc(Cl)c(Cl)c3)CC1CC2 (racemic) [(±)-3-(3,4-Dichlorophenyl)-8-methyl-8-azabicyclo[3.2.1]oct-2-ene]
ED50 [1]: 0.96 mg/kg
IC50 [2]: 79 nM
IC50 [3]: 26 nM
IC50 [4]: 4.7 nM
